Test results from patent US20230251278A1, “ACQUISITION METHOD OF VALUE RELATING TO TRIGLYCERIDE METABOLIC CAPACITY, PRESENTATION METHOD OF DISEASE INFORMATION, PRESENTATION METHOD OF DISEASE DIFFERENTIATION INFORMATION, PRESENTATION METHOD OF THERAPY EFFICACY INFORMATION, PRESENTATION METHOD OF THERAPEUTIC EFFECT INFORMATION, TEST REAGENT …” (OSAKA UNIVERSITY, priority 2020, published 2023).

How the values were obtained:
[1] = system: leucocytes (neutrophils, monocytes, lymphocytes); assay: Uptake of fluorescence-labeled BMPP by leucocytes in whole blood (FACS); assay type: cell-based, human; settings: monocytes and lymphocytes, whole blood of healthy individual, 0.0074, 0.022, 0.067, 0.2 μM, room temperature 30 minutes
Method: Each 200 μl of whole blood collected from a healthy individual using a blood collection tube containing heparin was used as a sample. As a fluorescent-labeled BMPP-added group, the Alexa Fluor™ 680-BMPP prepared in the experimental example 1 was added to the samples so that a final concentration of the Alexa Fluor™ 680-BMPP was 0.0074 μM, 0.022 μM, 0.067 μM, and 0.2 μM, respectively. As a negative control group, Alexa Fluor™ 680 NHS Ester hydrolysate (hereinafter, simply referred to as Alexa Fluor™ 680) was added to the samples so that a final concentration of the Alexa Fluor™ 680 was 0.0074 μM, 0.022 μM, 0.067 μM, and 0.2 μM, respectively. […]
After the uptake is completed, 2 ml of BD FACS Lysing Solution (BD Biosciences) was added to the sample, and the mixture was allowed to stand at room temperature for 30 minutes to hemolyze erythrocytes, and then leucocytes were collected as precipitates by centrifugation at room temperature at 1500 rpm for 30 minutes, and resuspended in PBS to prepare a sample for FACS analysis. The FACS analysis was performed by preparing gates containing lymphocytes, monocytes, or neutrophils in advance by dot plots of forward-scattered light and side-scattered light using leucocytes prepared in the same manner without adding the Alexa Fluor™ 680-BMPP, and measuring the number of cells until […] cells were counted in the gate. […]

[2] = system: leucocytes (neutrophils, monocytes, lymphocytes); assay: Uptake and excretion of Alexa Fluor 680-BMPP by leucocytes of healthy individuals and primary TGCV patients (FACS); assay type: cell-based, human
Method: 5.5 ml of whole blood collected from healthy individuals and patients using the blood collection tube containing heparin was added with the leucocyte separating agent (HetaSep, Veritas Corporation) in an amount of one fifth of the whole blood, leucocytes were collected according to a manufacturer's instruction, and the cells were resuspended in 2.1 ml of DMEM medium without serum (hereinafter, DMEM serum-free medium). Alexa Fluor™ 680-BMPP uptake ability and Alexa Fluor™ 680-BMPP excretion ability of the leucocytes were measured using 400 μl each as described below.
40 μl of the Alexa Fluor™ 680-BMPP or 40 μl of the Alexa Fluor™ 680 was added to 400 μl of the cell resuspension so that a final concentration of the Alexa Fluor™ 680-BMPP or the Alexa Fluor™ 680 was 0.067 μM, and a reaction for uptake the fluorescence-labeled substance was performed by standing at room temperature for 30 minutes. A sample for measurement immediately after the uptake was added with BD FACS Lysing Solution immediately after the reaction to be hemolyzed and then, subjected to FACS. On the other hand, as for a sample for measurement of excretion, the Alexa Fluor™ 680-BMPP or the Alexa Fluor™ 680 was removed from the sample by centrifugation at room temperature, cells were resuspended in 500 μl of DMEM serum-free medium, and the cells were allowed to stand at 37° C. for 2 hours to be subjected to an excretion reaction of the taken Alexa Fluor™ 680-BMPP or Alexa Fluor™ 680, then BD FACS Lysing Solution was added, and the sample was subjected to FACS in the same manner as the sample immediately after the uptake. FACS analysis was performed in the same manner as described in the experimental example 2, and for each of neutrophils, monocytes, and lymphocytes, fluorescence intensity of the sample immediately after uptake was compared with fluorescence intensity of the sample for measurement of excretion.

[3] = system: leucocytes (neutrophils) of the case 1 patient; assay: Ability of leucocytes to excrete Alexa Fluor 680-BMPP before and after tricaprin treatment; assay type: in vivo, human
Method: Next, the abilities for taking up and for excreting the Alexa Fluor™ 680-BMPP were compared using whole blood collected from the patients in the case 1 described in the above 6-2. before and after the tricaprin treatment.
Preparation of the leucocyte and measurement of the abilities for taking up and for excreting the Alexa Fluor™ 680-BMPP using the leucocyte cells were performed according to the experimental examples.

[4] = system: leucocytes (neutrophils, monocytes, lymphocytes); assay: Influence of excretion time on Alexa Fluor 680-BMPP excretion amount (FACS); assay type: cell-based, human; settings: leucocytes of two healthy individuals; 0.067 μM; 37° C.; histograms did not shift from 10 to 120 minutes
Method: 6 ml of each whole blood collected from two healthy individuals using the blood collection tube containing heparin was added with the HetaSep (Veritas Corporation) in an amount of one fifth of the whole blood, leucocytes were collected according to the manufacturer's instruction, and the cells were resuspended in 2.1 ml of the DMEM serum-free medium. Alexa Fluor™ 680-BMPP uptake ability and Alexa Fluor™ 680-BMPP excretion ability of the leucocytes were measured using 400 μl each as described below.
40 μl of the Alexa Fluor™ 680-BMPP was added to 400 μl of the cell resuspension so that a final concentration of the Alexa Fluor™ 680-BMPP was 0.067 μM, and a reaction for uptake the Alexa Fluor™ 680-BMPP was performed by standing at room temperature for 30 minutes. A sample for measurement immediately after the uptake was added with BD FACS Lysing Solution immediately after the reaction to be hemolyzed and then, subjected to FACS. […] FACS analysis was performed in the same manner as described in the experimental example 2, and for each of neutrophils, monocytes, and lymphocytes, fluorescence intensities at each excretion time were compared each other.

[5] = system: triglyceride deposit-type atherosclerosis of the coronary artery; assay: MCT dietary therapy: coronary artery CT evaluation of fat accumulated in coronary arteries; assay type: in vivo, human
Method: A person with genetic ATGL (Adipose triglyceride lipase) deficiency. Since it was confirmed that the patient was suffering from triglyceride deposit-type atherosclerosis by coronary CT inspection, MCT dietary therapy was started. The patient ingested 6 to 9 g of tricaprin as the MCT per 1 day, 3 times a day after meals for 50 days.
Before the start of the MCT dietary therapy and after 50 days from the start of the MCT dietary therapy, normal coronary artery CT was performed to acquire a three-dimensional DICOM image of the left anterior descending branch. The samples were resampled in 0.1 mm^3 of voxels and layer-by-layer coloring was performed based on intra-voxel CT values. Smoothing was performed between voxels. The layer-by-layer coloring was performed as follows.
Light gray: between −25 HU to 0 HU (fat content is high) Middle gray 0 HU to 40 HU (fat content is medium) Dark gray: 40 HU to 125 HU (no fat) (iii) Results
A person who has suffered from refractory angina pectoris for years. Even when a combination treatment of a plurality of antianginal drugs and statins or the like was performed, the angina pectoris was rather exacerbated. Since it was confirmed that the patient was suffering from triglyceride deposit-type atherosclerosis by coronary CT inspection, MCT dietary therapy was started. The patient ingested 1.5 g of tricaprin as the MCT per 1 day, 3 times a day after meals for 4 years.
Before the start of the MCT dietary therapy and after 4 years from the start of the MCT dietary therapy, normal coronary artery CT was performed, and the layer-by-layer coloring of the inside of the left anterior descending branch was performed in the same manner as described in the case 1.

Molecule | uptake amount of the Alexa Fluor 680-BMPP (shift of fluorescence intensity histogram) [1] | ability to excrete the Alexa Fluor 680-BMPP, primary TGCV patient versus healthy individuals ([2]; leucocytes, overall conclusion) | ability to excrete the Alexa Fluor 680-BMPP (leftward shift of fluorescence intensity) ([2]; lymphocytes of healthy individuals, 0.067 μM, excretion 37° C. 2 hours) | ability to excrete the Alexa Fluor 680-BMPP compared to healthy individuals ([2]; lymphocytes of primary TGCV patients, 0.067 μM, excretion 37° C. 2 hours) | ability to excrete the Alexa Fluor 680-BMPP (leftward shift of histogram) ([2]; neutrophils of healthy individuals, 0.067 μM, excretion 37° C. 2 hours) | ability to excrete the Alexa Fluor 680-BMPP compared to healthy individuals ([2]; neutrophils of primary TGCV patients, 0.067 μM, excretion 37° C. 2 hours) | ability for excreting the Alexa Fluor 680-BMPP compared to healthy individuals ([3]; leucocytes (neutrophils) of case 1 patient before the start of the treatment) | excretion time at which the taken Alexa Fluor 680-BMPP was sufficiently excreted (almost background) [4] [min] | ability for excreting the Alexa Fluor 680-BMPP in the patient after the treatment ([3]; case 1 patient leucocytes after tricaprin (MCT dietary therapy) treatment) | effect on triglyceride deposit-type atherosclerosis of the coronary artery (coronary CT) ([5]; case 1: genetic ATGL deficiency, 6 to 9 g per day, 50 days) | effect on triglyceride deposit-type atherosclerosis of the coronary artery (coronary CT) ([5]; case 2: refractory angina pectoris, 1.5 g per day, 4 years) | diameter of the blood flow site (coronary CT) ([5]; case 2, 1.5 g per day, 4 years)
15-phenyl-3-methylpentadenoic acid labeled with Alexa Fluor™ 680 [Alexa Fluor™ 680-BMPP] | concentration dependent increase | lower | demonstrated | reduced | sufficiently demonstrated | clearly reduced | clearly reduced | 10 |  |  |  | 
CCCCCCCCCC(=O)OCC(COC(=O)CCCCCCCCC)OC(=O)CCCCCCCCC [tricaprin] |  |  |  |  |  |  |  |  | restored to the same level as in healthy individuals | regression | regression | significantly increased
